The results in this text go back to ChEMBL document CHEMBL4043078, “Biological evaluation of pyridone alkaloids on the endocannabinoid system” (Bioorg Med Chem, 2017).

Activity calls are given as the source filed them. No cut-off for these calls is given here.

Usually inhibition stands for the drop in the measured response relative to a control, in per cent. As usually defined, the IC50 is the point on the concentration scale where inhibition reaches its midpoint. What is called Ki is a dissociation constant, usually derived from enzyme kinetics or from competition with a known ligand. Low values mean a stronger hold on the target, high ones a looser hold on the target.

One test is filed under the species Sus scrofa. Description: Inhibition of MAGL in pig brain homogenates using [3H]2-OG as substrate at 10 uM after 15 mins in presence of URB597 by liquid scintillation counting method. The class given is tissue-based.
In test [1] the target is T1, Cannabinoid receptor 1 (Homo sapiens, UniProt P21554). The experiment in a line: Displacement of [3H]CP55,940 from human CB1 receptor expressed in CHOK1 cell membranes at 1 uM after 2 hrs by liquid scintillation counting method relative to control.
T1 sequence (P21554 whole entry): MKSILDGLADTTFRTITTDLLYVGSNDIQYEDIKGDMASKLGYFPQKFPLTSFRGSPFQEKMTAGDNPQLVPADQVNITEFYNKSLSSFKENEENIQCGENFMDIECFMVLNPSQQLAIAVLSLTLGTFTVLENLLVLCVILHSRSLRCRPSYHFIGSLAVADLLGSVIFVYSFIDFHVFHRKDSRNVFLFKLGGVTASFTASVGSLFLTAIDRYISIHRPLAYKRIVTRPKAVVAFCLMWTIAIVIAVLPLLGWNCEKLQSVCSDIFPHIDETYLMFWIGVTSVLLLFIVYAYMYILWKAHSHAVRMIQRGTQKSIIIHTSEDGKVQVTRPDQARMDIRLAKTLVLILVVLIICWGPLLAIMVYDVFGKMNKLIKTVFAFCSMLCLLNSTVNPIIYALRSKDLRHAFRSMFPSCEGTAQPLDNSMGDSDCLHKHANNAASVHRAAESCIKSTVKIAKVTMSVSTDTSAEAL
For test [2], the target named is T2, Fatty-acid amide hydrolase 1 (Homo sapiens, UniProt O00519).
T2 sequence (O00519 whole entry): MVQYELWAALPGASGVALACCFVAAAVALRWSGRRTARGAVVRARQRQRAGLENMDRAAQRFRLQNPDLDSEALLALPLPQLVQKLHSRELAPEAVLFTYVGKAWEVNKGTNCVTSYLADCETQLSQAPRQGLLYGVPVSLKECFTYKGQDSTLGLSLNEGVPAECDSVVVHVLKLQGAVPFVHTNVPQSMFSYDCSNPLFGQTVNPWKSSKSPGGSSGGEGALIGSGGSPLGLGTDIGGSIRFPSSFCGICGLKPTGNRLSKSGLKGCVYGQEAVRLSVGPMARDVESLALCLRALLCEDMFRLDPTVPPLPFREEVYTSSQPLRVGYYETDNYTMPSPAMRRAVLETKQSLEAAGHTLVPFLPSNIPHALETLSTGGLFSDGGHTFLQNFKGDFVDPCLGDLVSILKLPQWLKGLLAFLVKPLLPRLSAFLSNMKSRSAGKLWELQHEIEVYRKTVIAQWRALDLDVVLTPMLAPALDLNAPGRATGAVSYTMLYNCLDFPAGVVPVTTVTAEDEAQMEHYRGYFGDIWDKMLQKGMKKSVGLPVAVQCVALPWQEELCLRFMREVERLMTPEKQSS
Description: Inhibition of FAAH in human U937 cells using [ethanolamine-1-3H]AEA as substrate after 15 mins by liquid scintillation counting method. The class given is cell-based.

The target of test [3] is T3, Fatty-acid amide hydrolase 1 (Homo sapiens) (UniProt O00519).
T3 sequence (whole entry): T2 sequence (O00519 whole entry)
The experiment in a line: Inhibition of FAAH in human U937 cells assessed as decrease in [ethanolamine-1-3H]AEA uptake at 10 uM preincubated for 2 mins followed by AEA addition after 5 mins by liquid scintillation counting method. In kind it is cell-based.

The target in test [4] is T4, Monoacylglycerol lipase ABHD6 (Mus musculus) (UniProt Q8R2Y0).
T4 sequence (whole entry): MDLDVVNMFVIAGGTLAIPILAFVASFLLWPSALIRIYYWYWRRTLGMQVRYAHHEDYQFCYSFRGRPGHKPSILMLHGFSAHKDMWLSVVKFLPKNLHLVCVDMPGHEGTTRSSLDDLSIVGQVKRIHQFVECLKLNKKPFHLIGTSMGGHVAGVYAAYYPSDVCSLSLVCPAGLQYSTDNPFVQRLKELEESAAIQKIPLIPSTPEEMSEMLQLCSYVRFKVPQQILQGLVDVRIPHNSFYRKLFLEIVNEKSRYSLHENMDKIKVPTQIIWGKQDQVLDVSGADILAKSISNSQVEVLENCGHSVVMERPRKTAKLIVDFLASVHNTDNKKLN
Description: Inhibition of ABHD6 in mouse BV2 cells preincubated for 30 mins and subsequent addition of [3H]-2-OG substrate measured after 15 mins by liquid scintillation counting method. The class given is cell-based.

Test [5] deals with T5, Prostaglandin G/H synthase 2 (Homo sapiens, UniProt P35354).
T5 sequence (P35354 whole entry): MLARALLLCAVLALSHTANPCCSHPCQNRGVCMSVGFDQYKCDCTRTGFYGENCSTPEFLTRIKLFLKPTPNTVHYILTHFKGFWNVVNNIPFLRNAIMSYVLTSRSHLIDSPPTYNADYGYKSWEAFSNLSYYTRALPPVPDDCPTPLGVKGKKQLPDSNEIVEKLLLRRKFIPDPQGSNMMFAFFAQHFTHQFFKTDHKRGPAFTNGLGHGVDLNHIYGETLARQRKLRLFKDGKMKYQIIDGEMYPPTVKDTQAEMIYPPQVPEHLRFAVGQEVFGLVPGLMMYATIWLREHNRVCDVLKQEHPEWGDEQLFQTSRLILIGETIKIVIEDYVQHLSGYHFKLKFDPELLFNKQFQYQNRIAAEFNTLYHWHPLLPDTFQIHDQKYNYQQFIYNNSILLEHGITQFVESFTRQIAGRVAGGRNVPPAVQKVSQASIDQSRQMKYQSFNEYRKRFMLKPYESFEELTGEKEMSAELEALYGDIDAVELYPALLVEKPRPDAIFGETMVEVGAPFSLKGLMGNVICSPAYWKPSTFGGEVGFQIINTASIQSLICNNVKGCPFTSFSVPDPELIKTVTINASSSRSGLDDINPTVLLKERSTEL
Description: Inhibition of recombinant human COX2 preincubated for 15 mins followed by arachidonic acid/2-OG substrate addition after 5 mins by ADHP probe-based fluorescence assay.

Test [6] deals with T6, Cannabinoid receptor 2 (Homo sapiens, UniProt P34972). Description: Displacement of [3H]CP55,940 from human CB2 receptor expressed in CHOK1 cell membranes after 2 hrs by liquid scintillation counting method.
T6 sequence (P34972 whole entry): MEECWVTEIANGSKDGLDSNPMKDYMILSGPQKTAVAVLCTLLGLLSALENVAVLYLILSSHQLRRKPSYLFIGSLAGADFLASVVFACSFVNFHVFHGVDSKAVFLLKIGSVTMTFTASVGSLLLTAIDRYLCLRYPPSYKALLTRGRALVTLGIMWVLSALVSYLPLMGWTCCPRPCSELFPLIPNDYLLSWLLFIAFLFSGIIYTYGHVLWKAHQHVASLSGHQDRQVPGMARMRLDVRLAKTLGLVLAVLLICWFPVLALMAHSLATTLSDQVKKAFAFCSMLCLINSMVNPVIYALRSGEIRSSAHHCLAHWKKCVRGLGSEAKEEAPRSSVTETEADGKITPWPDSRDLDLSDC
The target in test [7] is T2, Fatty-acid amide hydrolase 1. Description: Inhibition of FAAH in human U937 cells assessed as decrease in [ethanolamine-1-3H]AEA uptake preincubated for 2 mins followed by AEA addition after 5 mins by liquid scintillation counting method. The class given is cell-based.
Test [8] concerns the target T1, Cannabinoid receptor 1. The experiment in a line: Displacement of [3H]CP55,940 from human CB1 receptor expressed in CHOK1 cell membranes after 2 hrs by liquid scintillation counting method. (In general: Displacement assays read how much labelled ligand stays bound in the presence of the test substance.)
Test [9] is described as follows: Inhibition of MAGL in pig brain homogenates using [3H]2-OG as substrate after 15 mins by liquid scintillation counting method. In kind it is tissue-based, Sus scrofa.
Test [10] addresses T3, Fatty-acid amide hydrolase 1 (Homo sapiens). The experiment in a line: Inhibition of FAAH in human U937 cells using [ethanolamine-1-3H]AEA as substrate at 10 uM after 15 mins by liquid scintillation counting method relative to control. In kind it is cell-based.
The target in test [11] is T7, Lysophosphatidylserine lipase ABHD12 (Mus musculus) (UniProt Q99LR1).
T7 sequence (whole entry): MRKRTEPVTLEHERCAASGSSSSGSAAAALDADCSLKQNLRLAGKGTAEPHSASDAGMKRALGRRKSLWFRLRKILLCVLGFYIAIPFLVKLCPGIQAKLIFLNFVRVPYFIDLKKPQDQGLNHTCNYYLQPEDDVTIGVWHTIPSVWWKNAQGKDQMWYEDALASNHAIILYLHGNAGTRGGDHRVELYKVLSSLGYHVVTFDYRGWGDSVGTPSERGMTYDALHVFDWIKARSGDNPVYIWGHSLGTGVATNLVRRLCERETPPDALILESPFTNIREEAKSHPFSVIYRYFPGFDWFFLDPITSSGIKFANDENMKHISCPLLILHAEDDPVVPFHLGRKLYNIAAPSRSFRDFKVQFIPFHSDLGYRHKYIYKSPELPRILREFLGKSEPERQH
The experiment in a line: Inhibition of ABHD12 in mouse BV2 cells preincubated for 30 mins and subsequent addition of [3H]-2-OG substrate measured after 15 mins by liquid scintillation counting method. The class given is cell-based.

Test [12] concerns the target T6, Cannabinoid receptor 2. Description: Displacement of [3H]CP55,940 from human CB2 receptor expressed in CHOK1 cell membranes at 1 uM after 2 hrs by liquid scintillation counting method relative to control.

Regarding `CCCCCCCC(=O)c1c(O)c(-c2ccc(O)cc2)c[nH]c1=O`, the inhibition result (in the test filed under Sus scrofa; in test [4]; in test [11]) was “inactive” throughout. Besides, the inhibition is under 20% on Cannabinoid receptor 1 [1], 80% in test [10] and under 20% on Cannabinoid receptor 2 [12]. Also, the IC50 in test [2] is over 10000 nM; in test [5], over 10000 nM; in [7], 700 nM; in [9], over 10000 nM. In addition, the inhibition result in test [3] was “Active”. For the same compound, the Ki on Cannabinoid receptor 2 [6] and at Cannabinoid receptor 1 [8] was over 1000 nM each time.

Take `CCCCCCCCCCOC(=O)c1c(O)c(-c2ccc(O)cc2)c[nH]c1=O`: the inhibition result (in the test listed under Sus scrofa; in [4]; in test [11]) was “inactive” each time. For the same compound, the results for the inhibition (on Cannabinoid receptor 1 [1]; in test [10]; on Cannabinoid receptor 2 [12]) were under 20%, 40 to 50% and under 20%, respectively. In addition, the IC50 was over 10000 nM in test [2], over 10000 nM in test [5], 600 nM in test [7] and over 10000 nM in test [9]. Besides, the inhibition entry in [3] is “Active”. Besides, the Ki on Cannabinoid receptor 2 [6] and on Cannabinoid receptor 1 [8] was over 1000 nM throughout.
